Data taken from US10799518B2, “Use of agonists of formyl peptide receptor 2 for treating dermatological diseases” (Allergan, Inc., priority 2013, dated 2020).

Target: FPRL-1 (Homo sapiens (Human), UniProt P25090)
Assay: FPRL-1 Ga16-CHO EC50 (efficacy)
Assay type: cell-based
Conditions: Table 3; value in parentheses

FPRL-1, sequence (P25090 whole entry): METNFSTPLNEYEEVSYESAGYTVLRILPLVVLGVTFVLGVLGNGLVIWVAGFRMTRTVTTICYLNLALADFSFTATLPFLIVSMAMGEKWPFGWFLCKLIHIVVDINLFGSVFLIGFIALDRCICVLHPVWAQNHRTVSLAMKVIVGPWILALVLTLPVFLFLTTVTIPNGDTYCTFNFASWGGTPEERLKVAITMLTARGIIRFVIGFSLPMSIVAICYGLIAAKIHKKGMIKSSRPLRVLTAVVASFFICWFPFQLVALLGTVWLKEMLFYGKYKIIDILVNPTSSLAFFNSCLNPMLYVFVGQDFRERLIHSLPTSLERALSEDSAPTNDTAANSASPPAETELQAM

Row | FPRL-1 Ga16-CHO (efficacy) | SMILES
1 | 0.67 | CCC1(CC)NC(=O)N(CC(=O)Nc2ccc(F)cc2)C1=O [2-(4,4-diethyl-2,5-dioxoimidazolidin-1-yl)-N-(4-fluorophenyl)acetamide]
2 | 0.98 | O=C(CN1C(=O)C2CC=CCC2C1=O)Nc1ccc(Br)cc1 (stereo not drawn) [N-(4-bromophenyl)-1,3,3a,4,7,7a-hexahydro-1,3-dioxo-2H-isoindole-2-acetamide]
3 | 0.90 | O=C(CN1C(=O)C2C3C=CC(C3)C2C1=O)Nc1ccc(Br)cc1 (stereo not drawn) [N-(4-bromophenyl)-1,3,3a,4,7,7a-hexahydro-1,3-dioxo-4,7-methano-2H-isoindole-2-acetamide]
4 | 0.96 | O=C(CN1C(=O)NC2(CCCC2)C1=O)Nc1ccc(Br)cc1 [N-(4-bromophenyl)-2-(2,4-dioxo-1,3-diazaspiro[4.4]non-3-yl)acetamide]
5 | 0.89 | O=C(CN1C(=O)NC2(CCCCC2)C1=O)Nc1ccc(Br)cc1 [N-(4-bromophenyl)-2-(2,4-dioxo-1,3-diazaspiro[4.5]dec-3-yl)acetamide]
6 | 0.96 | O=C(CN1C(=O)NC2(CCCCCC2)C1=O)Nc1ccc(Br)cc1 [N-(4-bromophenyl)-2-(2,4-dioxo-1,3-diazaspiro[4.6]undec-3-yl)acetamide]
7 | 0.98 | CCCC1(CCC)NC(=O)N(CC(=O)Nc2ccc(Br)cc2)C1=O [N-(4-bromophenyl)-2-(2,5-dioxo-4,4-dipropylimidazolidin-1-yl)acetamide]
8 | 0.98 | CCC1(CC)NC(=O)N(CC(=O)Nc2ccc(Br)cc2)C1=O [N-(4-bromophenyl)-2-(4,4-diethyl-2,5-dioxoimidazolidin-1-yl)acetamide]
9 | 0.94 | CC1(C)NC(=O)N(CC(=O)Nc2ccc(Br)cc2)C1=O [N-(4-bromophenyl)-2-(4,4-dimethyl-2,5-dioxoimidazolidin-1-yl)acetamide]
10 | 0.84 | CC1(C2CC2)NC(=O)N(CC(=O)Nc2ccc(Br)cc2)C1=O (stereo not drawn) [N-(4-bromophenyl)-2-(4-cyclopropyl-4-methyl-2,5-dioxoimidazolidin-1-yl)acetamide]
11 | 0.83 | CCC1(c2ccccc2)NC(=O)N(CC(=O)Nc2ccc(Br)cc2)C1=O (stereo not drawn) [N-(4-bromophenyl)-2-(4-ethyl-2,5-dioxo-4-phenylimidazolidin-1-yl)acetamide]
12 | 1.0 | CCC1(C)NC(=O)N(CC(=O)Nc2ccc(Br)cc2)C1=O (stereo not drawn) [N-(4-bromophenyl)-2-(4-ethyl-4-methyl-2,5-dioxoimidazolidin-1-yl)acetamide]
13 | 0.88 | CC1(CCc2ccccc2)NC(=O)N(CC(=O)Nc2ccc(Br)cc2)C1=O (stereo not drawn) [N-(4-bromophenyl)-2-[4-methyl-2,5-dioxo-4-(2-phenylethyl)imidazolidin-1-yl]acetamide]
14 | 0.79 | CCC1(CC)NC(=O)N(CC(=O)Nc2ccc(Cl)cc2)C1=O [N-(4-chlorophenyl)-2-(4,4-diethyl-2,5-dioxoimidazolidin-l-yl)acetamide]

Target: human FPR2 receptor (Homo sapiens (Human), UniProt P25090)
Sequence (P25090 whole entry): as above
Assay: FLIPR Ca+2 response in HEK-Gα16 cells stably expressing the human FPR2 receptor
Assay type: cell-based
Conditions: Table 4; HEK-Gα16 human FPR2, FLIPR
Protocol: HEK-Gα16 cells stably expressing the human FPR2 receptor was utilized. Cells were plated into 384-well poly-D-lysine coated plates at a density of 18,000 cells per well one day prior to use. The growth media was DMEM medium supplemented with 10% fetal bovine serum (FBS), 1% antibiotic-antimycotic, 50 μg/ml hygromycin, and 400 μg/ml geneticin. On the day of the experiment, the cells were washed twice with Hank's Balanced Salt Solution supplemented with 20 mM HEPES (HBSS/hepes buffer). The cells were then dye loaded with 2 μM Fluo-4 diluted in the HBSS/Hepes buffer and incubated at 37° C. for 40 minutes. Extracellular dye was removed by washing the cell plates four times prior to placing the plates in the FLIPR (Fluorometric Imaging Plate Reader, Molecular Devices). Ligands were diluted in HBSS/Hepes buffer and prepared in 384-well microplates. Data for Ca^+2 responses were obtained in relative fluorescence units.

Row | SMILES | EC50 [nM]
15 | O=C(O)[C@@H]1C2CCC([C@@H]1C(=O)Nc1ccc(Br)cc1)C21CC1 (relative stereo) [Compound 14, rel-(2R,3 S)-3-[(4-brornophenyl)carbarnoyl]spiro [bicyclo[2.2.1]heptane-7,1′-cyclopropane]-2-carboxylic acid] | 4
16 | CSc1ccc(NC(=O)C2C(C(=O)O)C3C=CC2C32CC2)cc1 (stereo not drawn) [Compound 31, 3-{[4-(methylsulfanyl)phenyl]carbamoyl} spiro[bicyclo[2.2.1]heptane-7,1′-cyclopropane]-5-ene-2-carboxylic acid] | 14
17 | CCOP(=O)(CCNC(=O)[C@H](CC(C)C)NC(=O)Nc1ccc(Br)cc1)OCC [Compound 119, diethyl (2-{[(2S)-2-{[(4-bromophenyl)carbamoyl]amino}-4-methylpentanoyl]amino}ethyl) phosphonate] | 16.1

Same assay, conditions: Table 4; value in parentheses, given mostly as fraction

Row | SMILES | FPR2 (% eff) [%]
18 | O=C(O)[C@@H]1C2CCC([C@@H]1C(=O)Nc1ccc(Br)cc1)C21CC1 (relative stereo) [Compound 14, rel-(2R,3 S)-3-[(4-brornophenyl)carbarnoyl]spiro [bicyclo[2.2.1]heptane-7,1′-cyclopropane]-2-carboxylic acid] | 90
19 | CSc1ccc(NC(=O)C2C(C(=O)O)C3C=CC2C32CC2)cc1 (stereo not drawn) [Compound 31, 3-{[4-(methylsulfanyl)phenyl]carbamoyl} spiro[bicyclo[2.2.1]heptane-7,1′-cyclopropane]-5-ene-2-carboxylic acid] | 96
20 | CC(C)C[C@H](NC(=O)Nc1ccc(Br)cc1)C(=O)N[C@@H](C)C(=O)O [Compound 90, (2S)-2-{[(2S)-2-{[(4-bromophenyl)carbamoyl]amino}-4-methylpentanoyl]amino} propanoic acid] | 100
21 | CC(C)C[C@H](NC(=O)Nc1ccc(Br)cc1)C(=O)NCC(O)CO (stereo partly drawn) [Compound 95, (2S)-2-{[(4-bromophenyl)carbamoyl]amino}-N-(2,3-dihydroxypropyl)-4-methylpentanamide] | 98
22 | CCOP(=O)(O)CNC(=O)[C@H](CC(C)C)NC(=O)Nc1ccc(Br)cc1 [Compound 105, ethyl hydrogen ({[(2S)-2-{[(4-bromophenyl)carbamoyl]amino}-4-methylpentanoyl]amino}methyl)phosphonate] | 88
23 | CCOP(=O)(O)CNC(=O)[C@@H](NC(=O)Nc1ccc(Br)cc1)[C@@H](C)CC [Compound 115, ethyl hydrogen ({[(2S,3S)-2-{[(4-bromophenyl)carbamoyl]amino}-3-methylpentanoyl]amino}methyl)phosphonate] | 88
24 | CC(C)C[C@H](NC(=O)Nc1ccc(Br)cc1)C(=O)NCc1cc(O)no1 [Compound 116, (2S)-2-{[(4-bromophenyl)carbamoyl]amino}-N-[(3-hydroxy-1,2-oxazol-5 - yl)methyl]-4-methylpentanamide] | 100
25 | CCC[C@H](NC(=O)Nc1ccc(Br)cc1)C(=O)NCP(=O)(OCC)OCC [Compound 117, diethyl (1[(2S)-2-1[(4-bromophenyl)carbamoyl]amino}pentanoyl]amino}methyl) phosphonate] | 100
26 | CCOP(=O)(CNC(=O)[C@H](Cc1ccccc1)NC(=O)Nc1ccc(Br)cc1)OCC [Compound 118, diethyl ({[(2S)-2-{[(4-bromophenyl)carbamoyl]amino}-3-phenylpropanoyl]amino}methyl)phosphonate] | 93
27 | CCC[C@H](NC(=O)Nc1ccc(Br)cc1)C(=O)NCP(=O)(O)OCC [Compound 123, ethyl hydrogen ({[(2S)-2-{[(4-bromophenyl)carbamoyl]amino}pentanoyl]amino}methyl) phosphonate] | 96
28 | CC(C)C[C@H](NC(=O)Nc1ccc(C(F)(F)F)cc1)C(=O)NCC(=O)O [Compound 124, {[(2S)-4-methyl-2-({[4-(trifluoromethyl)phenyl]carbamoyl}amino)pentanoyl]amino}acetic acid] | 100
29 | CCOP(=O)(O)CNC(=O)[C@H](Cc1ccccc1)NC(=O)Nc1ccc(Br)cc1 [Compound 126, ethyl hydrogen ({[(2S)-2-{[(4-bromophenyl)carbamoyl]amino}-3-phenylpropanoyl]amino}methyl)phosphonate] | 100
30 | CCOP(=O)(CNC(=O)[C@H](CC(C)C)NC(=O)Nc1ccc(C(F)(F)F)cc1)OCC [Compound 134, diethyl ({[(2S)-4-methyl-2-({[4-(trifluoromethyl)phenyl]carbamoyl}amino)pentanoyl]amino}methyl)phosphonate] | 97
31 | CCOP(=O)(O)CNC(=O)[C@H](CC(C)C)NC(=O)Nc1ccc(C(F)(F)F)cc1 [Compound 135, ethyl hydrogen ({[(2S)-4-methyl-2-({[4-(trifluoromethyl)phenyl]carbamoyl}amino)pentanoyl]amino}methyl)phosphonate] | 91
32 | CCOP(=O)(CNC(=O)[C@H](CC(C)C)NC(=O)Nc1ccc(SC)cc1)OCC [Compound 138] | 91
33 | CCOP(=O)(CCNC(=O)CC1(C(C)C)NC(=O)N(NC(=O)Nc2ccc(Br)cc2)C1=O)OCC (stereo not drawn) [Compound 152, diethyl [2-({[1-{[(4-bromophenyl)carbamoyl]amino}-2,5-dioxo-4-(propan-2-yl)imidazolidin-4-yl]acetyl}amino)ethyl] phosphonate] | 100

System: LL-37-induced inflammation in mouse ears
Assay: LL37-induced model of rosacea in mice (ear thickness)
Assay type: in vivo
Conditions: topical to ears; p<0.05 vs. vehicle; FIG. 2
Protocol: LL37-Induced Model of Rosacea in Mice:
Prior to dosing, animals are lightly anaesthetized with isofluorane and baseline right and left ear thickness measurements are made with a digital caliper (Mitutoyo 293-340). At t=−1 hrs, animals are lightly anaesthetized with isoflurane to allow topical application (dorsal side) of 10 μL of FPR2 agonist formulated in a vehicle consisting of PBS:ethanol (50:50), or vehicle control to both ears. At t=0 hr, mice are re-anaesthetized. Following ear thickness measurements, 20 uL of LL-37 (100 μM) is injected into the right ear, while PBS is injected into the left ear. Additional ear thickness measurements are taken at t=3 and 6 hours. After the last time point, mice are euthanized by CO2 inhalation and ears collected for additional analyses.

Row | SMILES | inflammation induced by LL-37 in mouse ears
34 | CC[C@H](C)[C@H](NC(=O)Nc1ccc(Br)cc1)C(=O)NCC(=O)O [Compound 3, {[(2S,3S)-2-{[(4-bromophenyl)carbamoyl]amino}-3-methylpentanoyl]amino} acetic acid] | Anti-inflammatory activity
35 | CC(C)C[C@H](NC(=O)Nc1ccc(Br)cc1F)C(=O)NCC(=O)O [Compound 7, {[(2S)-2-{[(4-bromo-2-fluorophenyl)carbamoyl]amino}-4-methylpentanoyl]amino} acetic acid] | Anti-inflammatory activity
36 | CC(C)C[C@H](NC(=O)Nc1ccc(Br)cc1)C(=O)NCC(=O)O [Compound 8, {[(2S)-2-{[(4-bromophenyl)carbamoyl]amino}-4-methylpentanoyl]amino} acetic acid] | Anti-inflammatory activity
